# Experimental data as given in US20220256854A1, “PLANT TREATMENT COMPOSITION” (Croda International Plc, priority 2019, published 2022).
# Legend:
# Format in all cases: in vivo
# Brachiaria decumbens [1] = test: Glufosinate absorption in Brachiaria decumbens with Mn formulations (Example 1, Study 1); details: glufosinate 2 l/ha; Mn formulation at 100 g/ha Mn where applied; 36 hours after application
# Method: (§1) Studies were conducted to evaluate the effect of an Mn formulation containing manganese on the absorption of glufosinate (Study 1) and glyphosate (Study 2) using Brachiaria decumbens as a model weed species.
# Study 1. Seed of Brachiaria decumbens were planted into pots in a greenhouse during January 2015. This experiment was designed as a randomized complete block with six replications. Each plant was sprayed in a spray chamber with one of six treatments (Table 1) 19 days after planting.
# The amount of glufosinate on the plant surface (not absorbed) and that penetrated plant tissue (absorbed) was measured 36 hours after application of a treatment using chromatography and spectrometry.
# Ipomoea acuminate [2] = test: Field trial, glufosinate with Formulation A, weed control (Example 4); details: Formulation A @ 1 l/ha where applied, mean of 7, 14, 28 daa
# Method: (§2) A study was conducted to evaluate the effect of an Mn formulation on glufosinate efficacy, as measured by the control of individual grass and broadleaf weed species.
# (§3) The trial was designed as a randomized complete block with three replications of four treatments (Table 9). The trial was planted at one location in Brazil during March 2016. Weed control was assessed 7, 14, and 28 daa.
# Brachiaria plantaginea [3] = test: as above; details: Formulation A @ 1 l/ha where applied, mean of 7, 14, 28 daa
# Method: as §2, §3
# Digitaria horizontalis [4] = test: as above; details: Formulation A @ 1 l/ha where applied, mean of 7, 14, 28 daa
# Method: as §2, §3
# Brachiaria decumbens [5] = test: as above; details: Formulation A @ 1 l/ha where applied, mean of 7, 14, 28 daa
# Method: as §2, §3
# Cenchrus echinatus [6] = test: as above; details: Formulation A @ 1 l/ha where applied, mean of 7, 14, 28 daa
# Method: as §2, §3
# [7] = tested on: individual grass and broadleaf weed species; test: Field trial, glufosinate with Formulation A, weed control, average over five weed species (Example 4); details: Formulation A @ 1 l/ha where applied, average of five weed species
# Method: as §2, §3
# Ipomoea acuminate [8] = test: Field trial, glyphosate with Formulation A, weed control (Example 3); details: Formulation A @ 1 l/ha where applied, mean of 7, 14, 28 daa
# Method: (§4) A study was conducted to evaluate the effect of an Mn formulation on glyphosate efficacy, as measured by the control of individual grass and broadleaf weed species.
# (§5) The trial was designed as a randomized complete block with three replications of four treatments (Table 7). The trial was planted at one location in Brazil during March 2016. Weed control was assessed 7, 14, and 28 daa.
# Brachiaria plantaginea [9] = test: as above; details: Formulation A @ 1 l/ha where applied, mean of 7, 14, 28 daa
# Method: as §4, §5
# Digitaria horizontalis [10] = test: as above; details: Formulation A @ 1 l/ha where applied, mean of 7, 14, 28 daa
# Method: as §4, §5
# Brachiaria decumbens [11] = test: as above; details: Formulation A @ 1 l/ha where applied, mean of 7, 14, 28 daa
# Method: as §4, §5
# Euphorbia heterophylla = test: as above; details: Formulation A @ 1 l/ha where applied, mean of 7, 14, 28 daa
# Method: as §4, §5
# Cenchrus echinatus [12] = test: as above; details: Formulation A @ 1 l/ha where applied, mean of 7, 14, 28 daa
# Method: as §4, §5
# Amaranthus retroflexus = test: as above; details: Formulation A @ 1 l/ha where applied, mean of 7, 14, 28 daa
# Method: as §4, §5
# Brachiaria decumbens [13] = test: Glyphosate absorption in Brachiaria decumbens with Mn formulations (Example 1, Study 2); details: glyphosate 3.5 l/ha; Mn formulation at 100 g/ha Mn where applied; four days after application
# Method: as §1
# Study 2. Seed of Brachiaria decumbens were planted into pots in a greenhouse during January 2015. This experiment was designed as a randomized complete block with six replications. Each plant was sprayed in a spray chamber with one of six treatments (Table 3) 25 days after planting.
# The amount of glyphosate on the plant surface (not absorbed) and that penetrated plant tissue (absorbed) was measured four days after application (daa) of a treatment using chromatography and spectrometry.
# [14] = tested on: individual grass and broadleaf weed species; test: Field trial, glyphosate with Formulation A, weed control, average over seven weed species (Example 3); details: Formulation A @ 1 l/ha where applied, average of seven weed species
# Method: as §4, §5
# weed species [15] = test: Field trial, glyphosate with K formulation, weed control (Example 5, Study 2); details: Glyphosate @ 2 l/ha, Formulation @ 5 l/ha where applied
# Method: (§6) Three studies were conducted to evaluate the effect of a K formulation on glyphosate efficacy, as measured by the control of weed species.
# Study 2. The trial was designed as a randomized complete block with two replications of six treatments (Table 13). The trial was planted at one location in Brazil during 2011. Weed control was assessed 14 and 25 daa.
# weed species [16] = test: Field trial, glyphosate with K formulation, weed control (Example 5, Study 3); details: Glyphosate @ 2 l/ha, Formulation @ 5 l/ha where applied
# Method: as §6
# Study 3. The trial was designed as a randomized complete block with two replications of six treatments (Table 15). The trial was planted at one location in Brazil during 2011. Weed control was assessed 14 and 25 daa.
# weed species [17] = test: Field trial, glyphosate with K formulation, weed control (Example 5, Study 1); details: Glyphosate @ 2 l/ha, no formulation
# Method: as §6
# Study 1. The trial was designed as a randomized complete block with two replications of five treatments (Table 11). The trial was planted at one location in Brazil during 2011. Weed control was assessed 14 and 25 daa.
# Grass weeds = test: Field trial, glyphosate with Mn formulation, control of grass weeds (Example 2); details: glyphosate 1 l/ha; V2 soybean growth stage; 7 daa; six locations in Brazil
# Method: (§7) A study was carried out to evaluate the effect of an Mn formulation on the efficacy of glyphosate, as measured by the control of broadleaf and grass weed species.
# (§8) The trial was designed as a randomized complete block with six replications of five treatments (Table 5). The trial was planted at each of six locations in Brazil during the 2015 season. All treatments were applied at the V2 soybean growth stage using backpack sprayers. Soybeans were sown at a rate consistent with locally recommended practices into plots that were approximately 4 m long and 5 m wide.
# (§9) Data collected from a 1 m^2 area of each plot included the number of broadleaf and grass weeds, by genus and species, at the V2 soybean growth stage immediately prior to treatment application. The number of dead/damaged and undamaged weeds, by genus and species, was collected from the same 1 m^2 area of each plot 7 daa of a treatment. Treatment 2 (glyphosate alone) was used as the control.
# Broadleaf weeds = test: Field trial, glyphosate with Mn formulation, control of broadleaf weeds (Example 2); details: glyphosate 1 l/ha; V2 soybean growth stage; 7 daa; six locations in Brazil
# Method: as §7, §8, §9
smiles,measurement,setting,value
"CP(=O)(O)CCC(N)C(=O)O (centres unmarked) [Glufosinate, glufosinate]",Glufosinate Absorbed (%),Brachiaria decumbens [1],24.0%
same,Weed control (%) IPOAC,Ipomoea acuminate [2]; Glufosinate @ 1.5 l/ha,96.7%
same,Weed control (%) IPOAC,Ipomoea acuminate [2]; Glufosinate @ 2.5 l/ha,100.0%
same,Weed control (%) BRAPL,Brachiaria plantaginea [3]; Glufosinate @ 1.5 l/ha,78.6%
same,Weed control (%) BRAPL,Brachiaria plantaginea [3]; Glufosinate @ 2.5 l/ha,88.2%
same,Weed control (%) DIGHO,Digitaria horizontalis [4]; Glufosinate @ 1.5 l/ha,67.0%
same,Weed control (%) DIGHO,Digitaria horizontalis [4]; Glufosinate @ 2.5 l/ha,82.9%
same,Weed control (%) BRADC,Brachiaria decumbens [5]; Glufosinate @ 1.5 l/ha,89.3%
same,Weed control (%) BRADC,Brachiaria decumbens [5]; Glufosinate @ 2.5 l/ha,91.1%
same,Weed control (%) CCHEC,Cenchrus echinatus [6]; Glufosinate @ 1.5 l/ha,62.8%
same,Weed control (%) CCHEC,Cenchrus echinatus [6]; Glufosinate @ 2.5 l/ha,78.7%
same,Weed control (%) Ave,[7]; Glufosinate @ 1.5 l/ha,78.9%
same,Weed control (%) Ave,[7]; Glufosinate @ 2.5 l/ha,88.2%
"O=C(O)CNCP(=O)(O)O [Glyphosate, glyphosate]",Weed control (%) IPOA,Ipomoea acuminate [8]; Glyphosate @ 1 l/ha,34.8%
same,Weed control (%) IPOA,Ipomoea acuminate [8]; Glyphosate @ 2 l/ha,52.6%
same,Weed control (%) BRAPL,Brachiaria plantaginea [9]; Glyphosate @ 1 l/ha,91.2%
same,Weed control (%) BRAPL,Brachiaria plantaginea [9]; Glyphosate @ 2 l/ha,95.9%
same,Weed control (%) DIGHO,Digitaria horizontalis [10]; Glyphosate @ 1 l/ha,96.3%
same,Weed control (%) DIGHO,Digitaria horizontalis [10]; Glyphosate @ 2 l/ha,99.0%
same,Weed control (%) BRADC,Brachiaria decumbens [11]; Glyphosate @ 1 l/ha,83.0%
same,Weed control (%) BRADC,Brachiaria decumbens [11]; Glyphosate @ 2 l/ha,90.2%
same,Weed control (%) EPHHL,Euphorbia heterophylla; Glyphosate @ 1 l/ha,65.4%
same,Weed control (%) EPHHL,Euphorbia heterophylla; Glyphosate @ 2 l/ha,77.4%
same,Weed control (%) CCHEC,Cenchrus echinatus [12]; Glyphosate @ 1 l/ha,95.0%
same,Weed control (%) CCHEC,Cenchrus echinatus [12]; Glyphosate @ 2 l/ha,98.7%
same,Weed control (%) AMARE,Amaranthus retroflexus; Glyphosate @ 1 l/ha,69.6%
same,Weed control (%) AMARE,Amaranthus retroflexus; Glyphosate @ 2 l/ha,84.7%
same,Glyphosate Absorbed (%),Brachiaria decumbens [13],21.0%
same,Weed control (%) Ave,[14]; Glyphosate @ 1 l/ha,76.5%
same,Weed control (%) Ave,[14]; Glyphosate @ 2 l/ha,85.5%
same,Weed control (%) 14 daa,weed species [15]; 14 daa,82.5%
same,Weed control (%) 25 daa,weed species [15]; 25 daa,96.5%
same,Weed control (%) 14 daa,weed species [16]; 14 daa,85%
same,Weed control (%) 25 daa,weed species [16]; 25 daa,90%
same,Weed control (%) 14 daa,weed species [17]; 14 daa,85%
same,Weed control (%) 25 daa,weed species [17]; 25 daa,96.5%
same,Weed control (%) Grass weeds,Grass weeds,97.7%
same,Weed control (%) Broadleaf weeds,Broadleaf weeds,83.8%
